Test results reported in patent US20230346853A1, “Probiotic Lyophilizate Reactivation Composition for Improving Intestinal Survivability and Adhesion of Probiotics” (COSMAX NBT, INC., priority 2021, published 2023).
Where two headings read alike, the source gives them in different places.

Assays:
Assay type in all cases: cell-based
[1] = test system: Lactobacillus plantarum HAC03; assay: Zeta potential of lyophilized probiotics mixed with single ingredients (screening); details: 0.1 M ingredient, rehydrated 1 min, pH 2.5
Protocol: In this experimental example, Lactobacillus plantarum HAC03 (accession number: KCTC13242BP, the Korean Research Institute of Bioscience and Biotechnology) (hereinafter referred to as “HAC03”), which was described in Korean Patent Application No. 10-2017-0051574, was used as a probiotic strain.
Afterwards, 2 mL of pH 2.5 distilled water was added to each sample, the pH was re-adjusted using HCl 0.1 N, and 800 μl of the calibrated sample was loaded in DTS1080 cuvettes. The electrophoretic mobility was measured by the Zetaizer Nano ZEN 3600 (Malvern Panalytica, UK) after 2 minutes of equilibration and the Smoluchowski equation was used to convert the data into zetapotential values.
In this experiment, zeta potentials were measured at a pH of 2.5 in consideration of the highly acidic stomach environment, which is one of the initial hurdles that drastically reduce the survivability of the bacteria.

[2] = test system: Lactobacillus plantarum HAC03; assay: in vitro Simulated Stomach Duodenum Passage (SSDP) probiotic survivability, lyophilized HAC03; details: for viability at 100000 µM: Lactiplantibacillus plantarum
Protocol: The HAC03 strain was mixed with each of the single compositions and 1 mL of distilled water for 1 min. The compositions were formulated to have a final concentration of 0.1 M when dissolved in 1 ml of distilled water. Thereafter, 9 mL of distilled water adjusted to have a pH of 2.5 was added to each mixture. The pH was readjusted back to 2.5 in case of an increased pH due to the nature of some of the single ingredients (in order to not affect the survival of the probiotics). After adjusting the pH to 2.5, the tubes were incubated at 37° C. for 1 hour to apply the low-pH gastric stress condition. […] During the gastrointestinal tract assay, the samples were taken immediately, 1 hour, and […] after the incubation (t=0, 1, and 2). The probiotic survivability of each sample after gastric stress and bile stress was calculated by counting viable colonies.

[3] = test system: Lactobacillus casei Lc-11; assay: Bacterial adhesion to human enterocyte-like Caco-2/TC-7 cell line, lyophilized Lc-11; details: 0.03 M, compared to the freeze-dried form
Text: (§1) An examination was made to see whether the effect of reactivating lyophilized probiotics is applicable to various strains in this experimental example. In this regard, lyophilized Bifidobacterium longum Bl-05 (Dupont; hereinafter referred to as “Bl-05”), Lactobacillus plantarum Lp-115 (Dupont; hereinafter referred to as “Lp-115”), Lactobacillus casei Lc-11 (Dupont; hereinafter referred to as “Lc-11”), and 7-strain mixture (400B) (Dupont; hereinafter referred to as “MIX”) were reactivated with L-lysine and then assayed for their ability to adhere to the human enterocyte-like Caco-2/TC-7 cell line.
(§2) Lyophilizates of the three strains and the 7-strain mix were adjusted to 2×10^8 CFU/g and mixed with 0.03 M L-lysine or 0.03 M proline. The pellets were washed three time with 1× PBS and resuspended in 10 ml MEM cell culture media supplemented with 20% FBS, 2 mM glutamine, and 1% non-essential amino acids. A bacterial adhesion assay was performed according to the method of Botes et al. (Arch. Microbiol, 190 (2008), pp. 573-584) with some modifications. […] To quantify the number of bacteria attached to Caco-2/TC-7 cells, the samples were serially diluted, incubated on MRS agar plates for 48 hours (37° C.), and then counted to measure relative adhesion ratio (counts of attached bacteria in test groups to counts of attached bacteria in the control). […]

[4] = test system: Bifidobacterium longum Bl-05; assay: Bacterial adhesion to human enterocyte-like Caco-2/TC-7 cell line, lyophilized Bl-05; details: 0.03 M, compared to the freeze-dried form
Text: as §1, §2

[5] = test system: Lactobacillus plantarum Lp-115; assay: Bacterial adhesion to human enterocyte-like Caco-2/TC-7 cell line, lyophilized Lp-115; details: 0.03 M; L-lysine compared to the freeze-dried form, proline compared to L-lysine-reactivated
Text: as §1, §2

[6] = test system: 7-strain mixture (400B); assay: Bacterial adhesion to human enterocyte-like Caco-2/TC-7 cell line, lyophilized 7-strain mixture; details: 0.03 M, compared to the freeze-dried form
Text: as §1, §2

## Cl.NCCCC[C@H](N)C(=O)O [L-Lysine hydrochloride, L-lysine hydrochloride]
[1]
  zeta potential of lyophilized HAC03 mixed with the ingredient (sign, FIG. 1): negative zeta potentials
[2]; HAC03, 1 h, pH 2.5, read-out: Stomach Survivability (%)
  viability at 100000 µM: 85.2%
[2]; HAC03, 2 h, pH 6, read-out: Duodenum Survivability (%)
  viability at 100000 µM: 48.4%
[2]; Table 1, 0.1 M ingredient, pH 2.5, 37° C., 1 hour
  Stomach log CFU/mL: 7.87 ± 0.07 log CFU/mL
[2]; Table 1, 0.1 M ingredient, then bile salts (10% ox gall) and pH 6.0 synthetic duodenum juice, 2 hours
  Duodenum log CFU/mL: 7.62 ± 0.09 log CFU/mL
[2]; Table 1, compared to fresh bacteria / distilled water
  intestinal survivability (acid resistance and bile resistance) in words: increased in acid resistance and bile resistance
[3]
  bacterial cell adhesion to Caco-2/TC-7 (FIGS. 2A and 2E), in words: significantly increased bacterial cell adhesion
[4]
  bacterial cell adhesion to Caco-2/TC-7 (FIGS. 2B and 2F), in words: significantly increased bacterial cell adhesion
[5]
  bacterial cell adhesion to Caco-2/TC-7 (FIGS. 2C and 2G), in words: significantly increased bacterial cell adhesion
[6]
  bacterial cell adhesion to Caco-2/TC-7 (FIGS. 2D and 2H), in words: significantly increased bacterial cell adhesion
